test system: Mycobacterium tuberculosis H37Rv growth inhibition, no glycerol; assay: Mycobacterium tuberculosis H37Rv growth inhibition, no glycerol, confirmatory dose response (AID 449764); conditions: not given;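 further: growth read after 7 days of incubation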

Structure (SMILES) | IC50 [µM]
Cn1c(NC(=S)Nc2ccccc2)nc2ccccc21 | 5.8
CCC1CSC(Nc2ccc(C(=O)/C=C/c3cccc(C)c3)cc2)=N1 (stereo not given) | 20.5
C#CCn1c(=NC(=O)c2cc(Cl)sc2Cl)sc2cc(S(N)(=O)=O)ccc21 | 12
Cc1ccc(NC(=O)Cc2ccc(-c3ccccc3)cc2)nc1 | 86.6
COC(=O)[C@H](CC(C)C)NC(=O)c1cc2c(cn1)[nH]c1ccccc12 | 19.9
Nc1c(C(=O)O)cnc2c(-c3ccc(Cl)cc3)cnn12 | 64
C=C1C(=O)O[C@@H]2C[C@@H](C)[C@@H]3C4OC4C(=O)[C@@]3(C)[C@@H](O)[C@H]12 (stereo not given in full) | 10.5
CCNCC(=O)N1c2ccccc2CCc2ccc(NC(=O)OC(C)C)cc21 | 53.7
CC(C)Cn1c(N2CCN(C(=O)/C=C/c3ccccc3)CC2)nc2ccccc21 | 34
CC1=C(C)C(=O)C(CCCCC#CCCCC#CCO)=C(C)C1=O | 24
CCCc1cc(-c2nc(-c3ccc(Br)cc3)cs2)ccn1 | 16.4
COc1ccc(-c2cc(-c3ccccc3)c(C#N)c(S(C)=O)n2)cc1 (stereo not given) | 91.8
c1ccc(Cn2c3ccccc3c3nnc(SCCN4CCCCC4)nc32)cc1 | 27.5
COc1cc(N=Nc2ccc3ccccc3c2)ccc1O | 39.7
CSCCC1NC(=O)N(CC(=O)N2N=C(c3ccc(Cl)cc3)CC2c2ccco2)C1=O (stereo not given) | 10.9
O=C(Cn1ncc(Cl)c(Cl)c1=O)c1ccc2c(c1)OCCO2 | 10.4
OC(CN1CCCCC1)Cn1c2ccc(Cl)cc2c2cc(Cl)ccc21 (stereo not given) | 11.2
CCCCCc1nc2c(c(=O)c3ccccc3n2C)c(=O)n1C1CCCCCC1 | 55.6
N#CC(C(=O)NCc1ccco1)c1nc2ccccc2nc1N1CCOCC1 (stereo not given) | 43
Nc1c2c(nc3ccn(Cc4ccccc4)c(=O)c13)CCC2 | 9.72
Cn1ccnc1C(=O)C1CCCN(Cc2cn[nH]c2-c2ccc(-c3ccccc3)cc2)C1 (stereo not given) | 77.1

Structure (SMILES) | IC50 [µM]
COc1ccc(NC(=O)NC(C)C2CC3CCC2C3)cc1 (stereo not given) | 25.3
COc1ccc(N/C=C/C(=O)c2sc(-c3ccccc3)nc2C)cc1 | 79.3
O=C1Nc2ccccc2/C1=N\N=C\C1=C(N2CCOCC2)C(=C\c2ccccc2)/CC1 | 36.5
O=C(CCCCCNc1nc(=S)[nH]c2ccccc12)N1CCN(c2ccccn2)CC1 | 90.2
CCOC(=O)c1ccc(NC2=CC(=O)C(=O)c3ccccc32)cc1 | 37.7
O=C(OCC#CCSc1nnc(-c2cccc3ccccc23)o1)c1cccs1 | 47.3
OC(COC(c1ccc(Cl)cc1)c1ccc(Cl)cc1)CN1CCc2ccccc2C1 (stereo not given) | 20.7
O=C(N/N=C\c1ccc[nH]1)c1cncc(Br)c1 | 45.3
CCOC(=O)c1nnc(-c2ccccc2)nc1NCc1ccccc1 | 19.2
CCOc1ccc(NC(=O)CCc2nnc3ccc(N4CCC(C)CC4)nn23)cc1 | 12.5
C=CCOc1ccc(C2=NOC(C(=O)Nc3ccc4c(c3)OCCO4)C2)cc1 (stereo not given) | 41.4
CN(/N=C/c1cc(Br)cc(Br)c1O)c1cccc(C(F)(F)F)n1 | 7.9
CC(C)(C)c1ccc(Cn2nnc3c(=O)[nH]c(C4CCCN(C(=O)Cc5cccs5)C4)nc32)cc1 (stereo not given) | 36
O=C(Nc1cccc(-c2nc3ccccc3s2)c1)c1cc(-n2cnnc2)ccc1Cl | 14
Cc1sc2ncnc(N3CCC(C(=O)NCC(=O)Nc4ccc(F)c(F)c4)CC3)c2c1C | 46.7
Cc1cncn1CCc1nc2c3ccccc3nc(SCC(=O)Nc3cccc(Cl)c3)n2n1 | 27.4
CN=c1scc(-c2ccccc2Br)n1/N=C/c1ccc[nH]1 | 88.3
CC(C)(C)c1cc(-c2nc(N)nc(N)n2)c(O)c(C(C)(C)C)c1 | 90.4
CCCCCC(=O)N/N=C(\C)c1ccccn1 | 29
COc1ccccc1C(=O)NC(=S)/C=C1/N(C)c2ccccc2C1(C)C | 30.8
C=CCc1cc(C)ccc1OCCCC(C(=O)OCC)C(=O)OCC | 28.1

Structure (SMILES) | IC50 [µM]
CCCc1cnc(NCCNCC(O)COc2ccc(Cl)c(Cl)c2)nc1 (stereo not given) | 24.2
COc1ccc(C2c3[nH]c4ccccc4c3CCN2Cc2cccn2-c2ncccn2)cc1C (stereo not given) | 36.4
C[n+]1c(-c2ccccc2)cc(CCCCc2cc(-c3ccccc3)[n+](C)c(-c3ccccc3)c2)cc1-c1ccccc1 | 24.8
Cc1ccc(C2(c3ccc(C)cc3)CC2C(=O)Nc2ccc([N+](=O)[O-])cc2O)cc1 (stereo not given) | 18.8
Cc1ccc(OCCCCNC2CCCC(C)C2C)c(C)c1 (stereo not given) | 23.1
O=C(Cc1ccc([N+](=O)[O-])cc1)Nc1cc(C(F)(F)F)cc(C(F)(F)F)c1 | 2.48
O=C(CCC(=O)NC1CCCCCCC1)Nc1nnc(C(F)(F)F)s1 | 12.1
CCCCn1nc(C(=O)N[C@@H](CCSC)c2nc3ccccc3[nH]2)c2ccccc2c1=O | 46.9
Cc1cc(Cl)ccc1NNC(=O)CCc1ccccc1 | 84.1
O=C(CSc1nc2ncc(Br)cc2[nH]1)Nc1ccc2c(c1)OCO2 | 25.1
COc1ccc(-c2cc(C3CCN(Cc4cccc(C(F)(F)F)c4)CC3)[nH]n2)cc1 | 13.3
C/C(=N/Nc1cc(-c2ccccc2)nc(-c2ccccc2)n1)c1ccc(O)cc1 | 9.73
CCN(CC)c1ccc(N)cc1 | 8.96
CN(CCO)c1cc(Sc2nc3ccccc3s2)c2nonc2c1[N+](=O)[O-] | 74.4
CC(Sc1nnc(NC2CCCCC2)s1)C(=O)Nc1ccc2c(c1)C(=O)c1ccccc1C2=O (stereo not given) | 11.2
CN1OC(COC(=O)c2ccc(Cl)cc2Cl)CC1c1ccccc1 (stereo not given) | 7.6
CC1CC2=C(CC1/C=N/NC(N)=S)C(C)(C)CCC2 (stereo not given) | 18.3
CCCNC1=C(N(C(C)=O)c2cccc(F)c2)C(=O)c2ccccc2C1=O | 12.2
Cc1cc(OCc2cc(C(=O)N(C)CCc3cnn(C)c3)no2)cc(C)c1Cl | 34.5

same assay, conditions: measured here: IC90 growth inhibition

Structure (SMILES) | IC90 [µM]
Cn1c(NC(=S)Nc2ccccc2)nc2ccccc21 | 6.33
CCC1CSC(Nc2ccc(C(=O)/C=C/c3cccc(C)c3)cc2)=N1 (stereo not given) | 35.9
C#CCn1c(=NC(=O)c2cc(Cl)sc2Cl)sc2cc(S(N)(=O)=O)ccc21 | 34.1
Cc1ccc(NC(=O)Cc2ccc(-c3ccccc3)cc2)nc1 | > 100
COC(=O)[C@H](CC(C)C)NC(=O)c1cc2c(cn1)[nH]c1ccccc12 | 39.8
Nc1c(C(=O)O)cnc2c(-c3ccc(Cl)cc3)cnn12 | 99.8
C=C1C(=O)O[C@@H]2C[C@@H](C)[C@@H]3C4OC4C(=O)[C@@]3(C)[C@@H](O)[C@H]12 (stereo not given in full) | 13
CCNCC(=O)N1c2ccccc2CCc2ccc(NC(=O)OC(C)C)cc21 | 77
CC(C)Cn1c(N2CCN(C(=O)/C=C/c3ccccc3)CC2)nc2ccccc21 | 47.4
CC1=C(C)C(=O)C(CCCCC#CCCCC#CCO)=C(C)C1=O | 26.2
CCCc1cc(-c2nc(-c3ccc(Br)cc3)cs2)ccn1 | 24.6
COc1ccc(-c2cc(-c3ccccc3)c(C#N)c(S(C)=O)n2)cc1 (stereo not given) | > 100
c1ccc(Cn2c3ccccc3c3nnc(SCCN4CCCCC4)nc32)cc1 | 42.1
CCc1nc2ccccc2c(C(=O)Nc2cc(C)ccc2C)c1C | > 100
COc1cc(N=Nc2ccc3ccccc3c2)ccc1O | 59.1
CSCCC1NC(=O)N(CC(=O)N2N=C(c3ccc(Cl)cc3)CC2c2ccco2)C1=O (stereo not given) | 13.6
O=C(Cn1ncc(Cl)c(Cl)c1=O)c1ccc2c(c1)OCCO2 | 15.7
OC(CN1CCCCC1)Cn1c2ccc(Cl)cc2c2cc(Cl)ccc21 (stereo not given) | 12.5
CCCCCc1nc2c(c(=O)c3ccccc3n2C)c(=O)n1C1CCCCCC1 | 77.5
N#CC(C(=O)NCc1ccco1)c1nc2ccccc2nc1N1CCOCC1 (stereo not given) | 47.2
Nc1c2c(nc3ccn(Cc4ccccc4)c(=O)c13)CCC2 | 15.9
Cn1ccnc1C(=O)C1CCCN(Cc2cn[nH]c2-c2ccc(-c3ccccc3)cc2)C1 (stereo not given) | 99.4

Structure (SMILES) | IC90 [µM]
COc1ccc(NC(=O)NC(C)C2CC3CCC2C3)cc1 (stereo not given) | 43.1
COc1ccc(N/C=C/C(=O)c2sc(-c3ccccc3)nc2C)cc1 | > 100
O=C1Nc2ccccc2/C1=N\N=C\C1=C(N2CCOCC2)C(=C\c2ccccc2)/CC1 | > 100
O=C(CCCCCNc1nc(=S)[nH]c2ccccc12)N1CCN(c2ccccn2)CC1 | > 100
CCOC(=O)c1ccc(NC2=CC(=O)C(=O)c3ccccc32)cc1 | 48.3
O=C(OCC#CCSc1nnc(-c2cccc3ccccc23)o1)c1cccs1 | > 100
OC(COC(c1ccc(Cl)cc1)c1ccc(Cl)cc1)CN1CCc2ccccc2C1 (stereo not given) | 27.6
O=C(N/N=C\c1ccc[nH]1)c1cncc(Br)c1 | 50.8
CCOC(=O)c1nnc(-c2ccccc2)nc1NCc1ccccc1 | > 100
CCOc1ccc(NC(=O)CCc2nnc3ccc(N4CCC(C)CC4)nn23)cc1 | 14.7
C=CCOc1ccc(C2=NOC(C(=O)Nc3ccc4c(c3)OCCO4)C2)cc1 (stereo not given) | 60
CN(/N=C/c1cc(Br)cc(Br)c1O)c1cccc(C(F)(F)F)n1 | 11.2
CC(C)(C)c1ccc(Cn2nnc3c(=O)[nH]c(C4CCCN(C(=O)Cc5cccs5)C4)nc32)cc1 (stereo not given) | 46.6
O=C(Nc1cccc(-c2nc3ccccc3s2)c1)c1cc(-n2cnnc2)ccc1Cl | 22
Cc1sc2ncnc(N3CCC(C(=O)NCC(=O)Nc4ccc(F)c(F)c4)CC3)c2c1C | 53.1
CN1CCN(C(=O)/C=C/c2cn(-c3ccccc3)nc2-c2ccc3c(c2)OCCO3)CC1 | > 100
Cc1cncn1CCc1nc2c3ccccc3nc(SCC(=O)Nc3cccc(Cl)c3)n2n1 | 31.9
CN=c1scc(-c2ccccc2Br)n1/N=C/c1ccc[nH]1 | 92.2
CC(C)(C)c1cc(-c2nc(N)nc(N)n2)c(O)c(C(C)(C)C)c1 | 96
CCCCCC(=O)N/N=C(\C)c1ccccn1 | 38.9
COc1ccccc1C(=O)NC(=S)/C=C1/N(C)c2ccccc2C1(C)C | 46.8
C=CCc1cc(C)ccc1OCCCC(C(=O)OCC)C(=O)OCC | 52.1

Structure (SMILES) | IC90 [µM]
CCCc1cnc(NCCNCC(O)COc2ccc(Cl)c(Cl)c2)nc1 (stereo not given) | 27.7
COc1ccc(C2c3[nH]c4ccccc4c3CCN2Cc2cccn2-c2ncccn2)cc1C (stereo not given) | 47
C[n+]1c(-c2ccccc2)cc(CCCCc2cc(-c3ccccc3)[n+](C)c(-c3ccccc3)c2)cc1-c1ccccc1 | 28.3
Cc1ccc(C2(c3ccc(C)cc3)CC2C(=O)Nc2ccc([N+](=O)[O-])cc2O)cc1 (stereo not given) | 23.6
Cc1ccc(OCCCCNC2CCCC(C)C2C)c(C)c1 (stereo not given) | 25.4
O=C(Cc1ccc([N+](=O)[O-])cc1)Nc1cc(C(F)(F)F)cc(C(F)(F)F)c1 | 3.41
O=C(CCC(=O)NC1CCCCCCC1)Nc1nnc(C(F)(F)F)s1 | 13.8
CCCCn1nc(C(=O)N[C@@H](CCSC)c2nc3ccccc3[nH]2)c2ccccc2c1=O | > 100
Cc1cc(Cl)ccc1NNC(=O)CCc1ccccc1 | > 100
O=C(CSc1nc2ncc(Br)cc2[nH]1)Nc1ccc2c(c1)OCO2 | > 100
COc1ccc(-c2cc(C3CCN(Cc4cccc(C(F)(F)F)c4)CC3)[nH]n2)cc1 | 24.9
C/C(=N/Nc1cc(-c2ccccc2)nc(-c2ccccc2)n1)c1ccc(O)cc1 | 12.7
CCN(CC)c1ccc(N)cc1 | 11.2
CN(CCO)c1cc(Sc2nc3ccccc3s2)c2nonc2c1[N+](=O)[O-] | 95
CC(Sc1nnc(NC2CCCCC2)s1)C(=O)Nc1ccc2c(c1)C(=O)c1ccccc1C2=O (stereo not given) | 14.4
CN1OC(COC(=O)c2ccc(Cl)cc2Cl)CC1c1ccccc1 (stereo not given) | 22.3
CC1CC2=C(CC1/C=N/NC(N)=S)C(C)(C)CCC2 (stereo not given) | 26.8
Cc1ccc(S(=O)(=O)NCc2ccc(C(=O)NCCCN3CCC(Cc4ccccc4)CC3)cc2)cc1 | > 100
CCCNC1=C(N(C(C)=O)c2cccc(F)c2)C(=O)c2ccccc2C1=O | 15.6
Cc1cc(OCc2cc(C(=O)N(C)CCc3cnn(C)c3)no2)cc(C)c1Cl | 56.2

From PubChem BioAssay AID449764 (Southern Research Specialized Biocontainment Screening …, 2010)
